Data as given in patent US20260078103A1, “ISOQUINOLONES AS PI3K INHIBITORS” (OnKure, Inc., priority 2022, published 2026).
Like-named read-outs stand apart in the source and are kept apart here.

Experiments:
Format in all cases: cell-based
[1] = test system: phosphorylation of AKT (pAKT) in T47D cells expressing mutant PI3Ka (H1047R); assay: In vitro cell pAKT (Ser473) HTRF, T47D cells; details: cellular pAKT, T47D cells, mutant PI3Ka (H1047R), 6 hours, read-out: Avg T-47D IC50
Procedure, shortened: (§1)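 pAKT (Ser473) was quantified by HTRF in lysates from cells exposed 6 h at 37 °C to 10-point compound series, with T47D in insulin-supplemented RPMI/10% FBS and SKBR3 in McCoy's 5a/10% FBS. Controls: 0.1% DMSO (high) and 10 uM alpelisib (low). IC50 from sigmoidal curve fitting.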

[2] = test system: T47D cells expressing mutant PI3Ka (H1047R); assay: In vitro cell proliferation, T47D cells (CellTiter-Glo); details: inhibition of proliferation, read-out: Avg T-47D EC50
Procedure, shortened: (§2)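 Proliferation was read by CellTiter-Glo luminescence after 72 h of exposure to 10-point compound dilutions at 37 °C and 5% CO2. T47D (RPMI, 10% FBS, insulin 0.2 units/mL) and SKBR3 (McCoys 5a, 10% FBS) cells were seeded at 1,500 cells/well. EC50 was fitted from inhibition relative to DMSO and 10 uM Alpelisib.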

[3] = test system: phosphorylation of AKT (pAKT) in SKBR3 cells express WT PI3Ka; assay: In vitro cell pAKT (Ser473) HTRF, SKBR3 cells; details: cellular pAKT
Procedure, shortened: as §1

[4] = test system: SKBR3 cells express WT PI3Ka; assay: In vitro cell proliferation, SKBR3 cells (CellTiter-Glo); details: inhibition of proliferation
Procedure, shortened: as §2

Structure (SMILES)	IC50 [1] [nM]	EC50 ([2]; 72 hours) [nM]	IC50 ([3]; 6 hours) [nM]	EC50 ([4]; 72 hours) [nM]	IC50 ([3]; Homo sapiens, SK-BR-3, 6 h) [nM]	EC50 ([4]; Homo sapiens, SK-BR-3, 72 h) [nM]	IC50 ([1]; Homo sapiens, T47D, 6 h) [nM]	EC50 ([2]; Homo sapiens, T47D, 72 h) [nM]
Cc1cc([C@@H](C)Nc2ccccc2C(=O)O)c2cc(C3CC3(F)F)n(C)c(=O)c2c1 (single isomer, unassigned) [Example 385]	1 to 500	1 to 500	> 15000	> 15000				
Cc1cc([C@@H](C)Nc2cccc(F)c2C(=O)O)c2cc(C3CC3(F)F)n(C)c(=O)c2c1 (single isomer, unassigned) [Example 420]	2000 to 15000	2000 to 15000			> 15000	> 15000		
Cc1cc([C@@H](C)Nc2cccc(F)c2C(=O)O)c2cc(C3CC3(F)F)n(C)c(=O)c2c1 (single isomer, unassigned) [Example 421]	1 to 500	500 to 2000	> 15000	> 15000				
C[C@@H](Nc1cccc(F)c1C(=O)O)c1cc(F)cc2c(=O)n(C)c(C3C[C@@H]3C3CC3)cc12 (single isomer, unassigned) [Example 425]		500 to 2000			> 15000	> 15000	1 to 500	
C[C@@H](Nc1cccc(F)c1C(=O)O)c1cc(F)cc2c(=O)n(C)c(C3C[C@@H]3C3CC3)cc12 (single isomer, unassigned) [Example 426]	1 to 500	1 to 500	> 15000	> 15000				
C[C@@H](Nc1cccc(F)c1C(=O)O)c1cc(F)cc2c(=O)n(C)c(C3C[C@@H]3C(F)(F)F)cc12 (single isomer, unassigned) [Example 427]					> 15000	> 15000	1 to 500	500 to 2000
C[C@@H](Nc1cccc(F)c1C(=O)O)c1cc(F)cc2c(=O)n(C)c(C3C[C@@H]3C(F)(F)F)cc12 (single isomer, unassigned) [Example 428]	1 to 500	500 to 2000	> 15000	> 15000				
C[C@@H](Nc1ccccc1C(=O)O)c1cc(F)cc2c(=O)n(C)c(C3C[C@@H]3C3CC3)cc12 (single isomer, unassigned) [Example 449]					> 15000	> 15000	1 to 500	1 to 500
C[C@@H](Nc1ccccc1C(=O)O)c1cc(F)cc2c(=O)n(C)c(C3C[C@@H]3C3CC3)cc12 (single isomer, unassigned) [Example 450]	1 to 500	1 to 500	> 15000	> 15000				
C[C@@H](Nc1ccccc1C(=O)O)c1cc(F)cc2c(=O)n(C)c(C3C[C@@H]3C(F)(F)F)cc12 (single isomer, unassigned) [Example 451]					> 15000	> 15000	1 to 500	1 to 500
C[C@@H](Nc1ccccc1C(=O)O)c1cc(F)cc2c(=O)n(C)c(C3C[C@@H]3C(F)(F)F)cc12 (single isomer, unassigned) [Example 452]	1 to 500	1 to 500	> 15000	> 15000				
C[C@@H](Nc1cccc(F)c1C(=O)O)c1cc(F)cc2c(=O)n(C)c(C3C[C@@H]3C(F)F)cc12 (single isomer, unassigned) [Example 475]					> 15000	> 15000	1 to 500	500 to 2000
C[C@@H](Nc1cccc(F)c1C(=O)O)c1cc(F)cc2c(=O)n(C)c(C3C[C@@H]3C(F)F)cc12 (single isomer, unassigned) [Example 476]	1 to 500	500 to 2000	> 15000	> 15000				
C[C@@H](Nc1cccc(F)c1C(=O)O)c1cc(F)cc2c(=O)n(C)c(C3CC3(F)F)cc12 (single isomer, unassigned) [Example 479]	2000 to 15000	2000 to 15000			> 15000	> 15000		
C[C@@H](Nc1cccc(F)c1C(=O)O)c1cc(F)cc2c(=O)n(C)c(C3CC3(F)F)cc12 (single isomer, unassigned) [Example 480]	1 to 500	500 to 2000	> 15000	> 15000				
C[C@@H](Nc1ccccc1C(=O)O)c1cc(F)cc2c(=O)n(C)c(C3CC3(F)F)cc12 (single isomer, unassigned) [Example 481]	500 to 2000	500 to 2000			> 15000	> 15000		

Structure (SMILES)	IC50 [1] [nM]	EC50 ([2]; 72 hours) [nM]	IC50 ([3]; 6 hours) [nM]	EC50 ([4]; 72 hours) [nM]	IC50 ([3]; Homo sapiens, SK-BR-3, 6 h) [nM]	EC50 ([4]; Homo sapiens, SK-BR-3, 72 h) [nM]	IC50 ([1]; Homo sapiens, T47D, 6 h) [nM]	EC50 ([2]; Homo sapiens, T47D, 72 h) [nM]
C[C@@H](Nc1ccccc1C(=O)O)c1cc(F)cc2c(=O)n(C)c(C3CC3(F)F)cc12 (single isomer, unassigned) [Example 482]	1 to 500	1 to 500	> 15000	> 15000				
Cc1cc(C(C)Nc2ccccc2C(=O)O)c2cc(-c3ccc(N4CCOCC4)nc3)n(C)c(=O)c2c1 (single isomer, unassigned) [Example 486]	2000 to 15000	2000 to 15000	> 15000	> 15000				
Cc1cc(C(C)Nc2ccccc2C(=O)O)c2cc(-c3ccc(N4CCOCC4)nc3)n(C)c(=O)c2c1 (single isomer, unassigned) [Example 487]	1 to 500	1 to 500	2000 to 15000	2000 to 15000				
C[C@@H](Nc1ccccc1C(=O)O)c1cc(F)cc2c(=O)n(C)c(C3C[C@@H]3C(F)F)cc12 (single isomer, unassigned) [Example 488]					> 15000	> 15000	1 to 500	1 to 500
C[C@@H](Nc1ccccc1C(=O)O)c1cc(F)cc2c(=O)n(C)c(C3C[C@@H]3C(F)F)cc12 (single isomer, unassigned) [Example 489]	1 to 500	1 to 500	> 15000	> 15000				
C[C@@H](Nc1ccccc1C(=O)O)c1cc(F)cc2c(=O)n(C)c(C3C[C@@H]3CF)cc12 (single isomer, unassigned) [Example 493]					> 15000	> 15000	1 to 500	1 to 500
C[C@@H](Nc1ccccc1C(=O)O)c1cc(F)cc2c(=O)n(C)c(C3C[C@@H]3CF)cc12 (single isomer, unassigned) [Example 494]	1 to 500	1 to 500	> 15000	> 15000				
CC(Nc1ccccc1C(=O)O)c1cc(F)cc2c(=O)n(C)c(N3C4CCC3CN(CC(F)(F)F)C4)c(F)c12 (single isomer, unassigned) [Example 566]	> 15000	2000 to 15000	> 15000			2000 to 15000		
CC(Nc1ccccc1C(=O)O)c1cc(F)cc2c(=O)n(C)c(N3C4CCC3CN(CC(F)(F)F)C4)c(F)c12 (single isomer, unassigned) [Example 567]	1 to 500	1 to 500	2000 to 15000	2000 to 15000				
CC(Nc1ccccc1C(=O)O)c1cc(F)cc2c(=O)n(C)c(N3CCN(CC(F)(F)F)CC3)c(F)c12 (single isomer, unassigned) [Example 572]	1 to 500	1 to 500	2000 to 15000			> 15000		
CC(Nc1ccccc1C(=O)O)c1cc(F)cc2c(=O)n(C)c(N3CCN(CC(F)(F)F)CC3)c(F)c12 (single isomer, unassigned) [Example 573]	2000 to 15000	2000 to 15000	> 15000	> 15000				
C[C@@H](Nc1ccccc1C(=O)O)c1cc(F)cc2c(=O)n(C)c(C3C[C@@H]3CF)c(F)c12 (single isomer, unassigned) [Example 577]					> 15000	> 15000	1 to 500	1 to 500
Cc1ccc(N[C@H](C)c2cc(F)cc3c(=O)n(C)c(C4CC4C4CC4)cc23)c(C(=O)O)n1 (stereo in doubt) [Example 45, 3-(((R)-1-(3-(trans-[1,1′-bi(cyclopropan)]-2-yl)-7-fluoro-2-methyl-1-oxo-1,2-dihydroisoquinolin-5-yl)ethyl)amino)-6-methylpicolinic acid]	500 to 2000	2000 to 15000	> 15000	> 15000				
Cc1cc(C(C)Nc2ccccc2C(=O)O)c2cc(-c3cc4cc(F)ccc4[nH]3)n(C)c(=O)c2c1 (centres unmarked) [Example 7, 2-((1-(3-(5-fluoro-1H-indol-2-yl)-2,7-dimethyl-1-oxo-1,2-dihydroisoquinolin-5-yl)ethyl)amino)benzoic acid]					> 15000	> 15000	500 to 2000	2000 to 15000
Cc1cc(C(C)Nc2ccccc2C(=O)O)c2cc(N3C[C@@H]4[C@@H](C#N)[C@@H]4C3)n(C)c(=O)c2c1 (stereo partly drawn) [Example 14, 2-((1-(3-((1R,5S,6r)-6-cyano-3-azabicyclo[3.1.0]hexan-3-yl)-2,7-dimethyl-1-oxo-1,2-dihydroisoquinolin-5-yl)ethyl)amino)benzoic acid]	1 to 500	1 to 500			> 15000	> 15000		
Cc1cc(C(C)Nc2ccccc2C(=O)O)c2cc(N3C[C@@H]4[C@@H](C#N)[C@@H]4C3)n(C)c(=O)c2c1 (stereo partly drawn) [Example 15, 2-((1-(3-((1R,5S,6r)-6-cyano-3-azabicyclo[3.1.0]hexan-3-yl)-2,7-dimethyl-1-oxo-1,2-dihydroisoquinolin-5-yl)ethyl)amino)benzoic acid]	2000 to 15000	500 to 2000	> 15000	> 15000				
